Calls of active or inactive are those of the source. The rule behind the calls is not given here.

The subject of experiment [1] is Aspergillus fumigatus. In words: Antifungal activity against Aspergillus fumigatus KM8001 assessed as inhibition of microbial growth by NCCLS protocol based method. It is filed as functional.
The test system of experiment [2] is Pichia kudriavzevii. In words: Antifungal activity against Candida krusei ATCC 6258 assessed as inhibition of microbial growth by NCCLS protocol based method. In kind it is functional.
Experiment [3] has as its system Nakaseomyces glabratus. In words: Antifungal activity against Candida glabrata ATCC 0001 assessed as inhibition of microbial growth by NCCLS protocol based method. In kind it is functional.
The test system of experiment [4] is Candida albicans. In words: Antifungal activity against Candida albicans ATCC 10231 assessed as inhibition of microbial growth by NCCLS protocol based method. It is filed as functional.
In experiment [5] the test system is Candida tropicalis. In words: Antifungal activity against Candida tropicalis ATCC 1369 assessed as inhibition of microbial growth by NCCLS protocol based method. It is filed as functional.
The subject of experiment [6] is Candida albicans. In words: Antifungal activity against Candida albicans assessed as inhibition of microbial growth at 25 to 250 nM/mL by polarizing microscopy. It is filed as functional, organism-based.
For experiment [7], the system named is Candida albicans. In words: Antifungal activity against Candida albicans assessed as reduction in proportion of microbes at cell division phase at 25 to 250 nM/mL by polarizing microscopy. In kind it is functional, organism-based.
Experiment [8] concerns Candida albicans. In words: Inhibition of SE/CYP51 in Candida albicans ATCC SC5314 assessed as effect on sterol composition by measuring Eburicol level at 16 ug/ml incubated for 90 mins by HPLC analysis (reference value: 8.3%). The arrangement: scale not given: the % may be the effect or the level left.
Experiment [9] relates to Candida albicans. In words: Inhibition of SE/CYP51 in Candida albicans ATCC SC5314 assessed as effect on sterol composition by measuring Lanosterol level at 16 ug/ml incubated for 90 mins by HPLC analysis (reference value: 10.99%). The arrangement: scale not given: the % may be the effect or the level left.
The test system of experiment [10] is Candida albicans. In words: Antifungal activity against Candida albicans assessed as induction of microbial cell killing at 25 to 250 nM/mL by polarizing microscopy. It is filed as functional, organism-based.
Experiment [11] has as its system Candida albicans. In words: Antifungal activity against Candida albicans assessed as reduction in cell division at 25 to 250 nM/mL by polarizing microscopy. It is filed as functional, organism-based.
The subject of experiment [12] is Heme. In words: Binding affinity to heme by UV-Visible spectroscopy.
Experiment [13] relates to Candida albicans. In words: Antifungal activity against Candida albicans assessed as reduction in cell volume at 25 to 250 nM/mL by polarizing microscopy. It is filed as functional, organism-based.
The test system of experiment [14] is Candida albicans. In words: Antifungal activity against Candida albicans assessed as inhibition of microbial growth at 2.5 nM/mL by polarizing microscopy. It is filed as functional, organism-based.
Experiment [15] deals with Candida albicans. In words: Inhibition of SE/CYP51 in Candida albicans ATCC SC5314 assessed as effect on sterol composition by measuring ergosterol level at 16 ug/ml incubated for 90 mins by HPLC analysis (reference value: 64.2%). The arrangement: scale not given: the % may be the effect or the level left.
Experiment [16] relates to Candida albicans. In words: Antifungal activity against fluconazole-resistant Candida albicans 103 assessed as inhibition of microbial growth by NCCLS protocol based method. It is filed as functional.
Experiment [17] concerns Candida albicans. In words: Antifungal activity against fluconazole-resistant Candida albicans 100 assessed as inhibition of microbial growth by NCCLS protocol based method. In kind it is functional.
For experiment [18], the system named is Heme. In words: Binding affinity to heme by fluorescence spectrum analysis.
Experiment [19] relates to Candida albicans. In words: Antifungal activity against Candida albicans assessed as induction of cell fracture at 2.5 nM/mL by polarizing microscopy. In kind it is functional, organism-based.
Experiment [20] relates to Candida albicans. In words: Inhibition of SE/CYP51 in Candida albicans ATCC SC5314 assessed as effect on sterol composition by measuring Squalene level at 16 ug/ml incubated for 90 mins by HPLC analysis. Set-up: scale not given: the % may be the effect or the level left.
Experiment [21] deals with Candida albicans. In words: Inhibition of SE/CYP51 in Candida albicans ATCC SC5314 assessed as effect on sterol composition by measuring Unidentified sterol level at 16 ug/ml incubated for 90 mins by HPLC analysis (reference value: 16.51%). Set-up: scale not given: the % may be the effect or the level left.

On to `O=C(N[C@H](C(=O)NCc1cccnc1)c1ccccc1)c1ccc2ccccc2c1`, for which the MIC in [1] is above 16 µg/mL; in experiment [2], 8 µg/mL; in experiment [3], above 16 µg/mL; in experiment [4], above 16 µg/mL; in experiment [5] it was 8 µg/mL.
As to `C[C@H](NC(=O)c1ccc2ccccc2n1)C(=O)NCc1cccnc1`, the MIC in [1] turned out to be 8 µg/mL; in experiment [2] it was 2 µg/mL; in experiment [3], 0.25 µg/mL; in [4], 1 µg/mL; in experiment [5], 0.5 µg/mL.
As for `CC(C)[C@H](NC(=O)c1ccc2ccccc2n1)C(=O)NCc1ccncc1`, the MIC in experiment [1] was above 16 µg/mL; in [2] it was 0.5 µg/mL; in experiment [3], 2 µg/mL; in [4], 0.5 µg/mL; in experiment [5] it was 4 µg/mL.
Regarding `CC(C)[C@H](NC(=O)c1ccc2ccccc2c1)C(=O)NCc1ccncc1`, the MIC was 8 µg/mL in experiment [1]; 0.5 µg/mL in experiment [2]; 0.5 µg/mL in experiment [3]; 2 µg/mL in experiment [4]; 2 µg/mL in [5].
Turning to `CC(C)[C@H](NC(=O)c1ccc2ccccc2c1)C(=O)NCc1cccnc1`, the MIC was above 16 µg/mL in [1]; 4 µg/mL in [2]; 2 µg/mL in [3]; 8 µg/mL in experiment [4]; 2 µg/mL in experiment [5].
Consider `OC(Cn1cncn1)(Cn1cncn1)c1ccc(F)cc1F` [FLUCONAZOLE], for which the minimum inhibitory concentration (MIC) is above 16 µg/mL in experiment [1]; 0.5 µg/mL in [2]; 1 µg/mL in experiment [3]; 0.5 µg/mL in [4]; above 16 µg/mL in experiment [16]; 2 µg/mL in experiment [5]. Also, in [17], the MIC is above 16 µg/mL. Besides, in experiment [6], the “growth inhibition (GI)” value is “Active”. Also, the outcome in experiment [7], in experiment [10], in [11], in experiment [12] and in experiment [13] was Active. Besides, the values for the Activity in experiment [8], in experiment [9] and in experiment [15] were 39.5%, 49.2% and 11.3%, respectively. Also, in [14], the “growth inhibition (GI)” value is “inactive”.
On to `C[C@H](NC(=O)c1ccc2ccccc2n1)C(=O)NCc1ccncc1`, for which the MIC in [1] was 1 µg/mL; in experiment [2] it was 0.25 µg/mL; in experiment [3] it was 0.125 µg/mL; in [4] it was 0.125 µg/mL; in experiment [16] it was 2 µg/mL; in experiment [5], 0.25 µg/mL. Moreover, the MIC in experiment [17] worked out at 0.5 µg/mL. Further, the “growth inhibition (GI)” value in [6] and in experiment [14] was “Active” each time. Moreover, the result in experiment [7], in [10], in experiment [11], in experiment [12], in experiment [13] and in experiment [19] was Active. The Activity in experiment [8] was 27.4%; in [9], 50.1%; in [18], “Dose-dependent effect”; in experiment [15], 9.02%; in experiment [20], 13.4%.
For the molecule `CN(C/C=C/C#CC(C)(C)C)Cc1cccc2ccccc12` [TERBINAFINE], the MIC was 2 µg/mL in experiment [1]; 0.5 µg/mL in experiment [2]; 1 µg/mL in [3]; 0.25 µg/mL in [4]; 4 µg/mL in experiment [16]; 2 µg/mL in experiment [5]. In addition, the MIC in experiment [17] is 8 µg/mL. The Activity in experiment [21] stood at 7.27%; in experiment [8], 21.9%; in experiment [9], 22.4%; in [15], 10.6%; in experiment [20] it was 37.8%. For the same molecule, the “growth inhibition (GI)” value in [6] is “Active”. In addition, the result in [7], in [10], in experiment [11] and in experiment [13] was Active. Also, the “growth inhibition (GI)” value in experiment [14] was “inactive”.
Regarding `O=C(CNC(=O)c1ccc2ccccc2n1)NCc1cccnc1`, the MIC was 2 µg/mL in [1]; 0.5 µg/mL in experiment [2]; 2 µg/mL in [3]; 0.5 µg/mL in experiment [4]; 1 µg/mL in experiment [5].
As for `CC(C)[C@H](NC(=O)c1ccc2ccccc2n1)C(=O)NCc1cccnc1`, the MIC in experiment [1] came to 4 µg/mL; in experiment [2], 1 µg/mL; in experiment [3], 0.5 µg/mL; in experiment [4] it was 0.5 µg/mL; in experiment [5] it was 2 µg/mL.
Take `O=C(CNC(=O)c1ccc2ccccc2c1)NCc1ccncc1`: the MIC came to 2 µg/mL in experiment [1]; 1 µg/mL in experiment [2]; 0.25 µg/mL in experiment [3]; 0.25 µg/mL in [4]; 0.5 µg/mL in [5].
In the case of `C[C@H](NC(=O)c1ccc2ccccc2c1)C(=O)NCc1ccncc1`, the MIC in [1] is 2 µg/mL; in experiment [2], 0.5 µg/mL; in experiment [3] it was 1 µg/mL; in [4], 0.25 µg/mL; in [5], 0.25 µg/mL.
As to `O=C(N[C@H](C(=O)NCc1ccncc1)c1ccccc1)c1ccc2ccccc2c1`, the MIC was above 16 µg/mL in experiment [1]; 4 µg/mL in experiment [2]; 8 µg/mL in experiment [3]; 4 µg/mL in experiment [4]; above 16 µg/mL in experiment [5].
Take `O=C(N[C@H](C(=O)NCc1ccncc1)c1ccccc1)c1ccc2ccccc2n1`: the MIC in [1] is above 16 µg/mL; in [2], 4 µg/mL; in [3], above 16 µg/mL; in experiment [4], 2 µg/mL; in [5] it was above 16 µg/mL.
In the case of `C[C@H](NC(=O)c1ccc2ccccc2c1)C(=O)NCc1cccnc1`, the MIC in experiment [1] stood at 4 µg/mL; in experiment [2] it was 0.5 µg/mL; in experiment [3], 1 µg/mL; in [4], 0.5 µg/mL; in experiment [5] it was 2 µg/mL.
Regarding `O=C(CNC(=O)c1ccc2ccccc2n1)NCc1ccncc1`, the MIC in [1] stood at 2 µg/mL; in [2], 0.5 µg/mL; in experiment [3] it was 0.5 µg/mL; in experiment [4] it was 0.25 µg/mL; in experiment [16], 1 µg/mL; in experiment [5] it was 0.125 µg/mL. Also, the MIC in [17] turned out to be 2 µg/mL. Besides, the “growth inhibition (GI)” value in experiment [6] and in experiment [14] was “Active” each time. Moreover, the outcome in experiment [7], in experiment [10], in [11], in [13] and in experiment [19] was Active.
Regarding `O=C(N[C@H](C(=O)NCc1cccnc1)c1ccccc1)c1ccc2ccccc2n1`, the MIC is above 16 µg/mL in [1]; above 16 µg/mL in [2]; 4 µg/mL in experiment [3]; 8 µg/mL in [4]; 2 µg/mL in experiment [5].
For `O=C(CNC(=O)c1ccc2ccccc2c1)NCc1cccnc1`, the MIC in experiment [1] is above 16 µg/mL; in experiment [2], 2 µg/mL; in experiment [3] it was 4 µg/mL; in experiment [4], 1 µg/mL; in experiment [5] it was 0.5 µg/mL.

By MIC is commonly meant the least concentration at which growth counts as inhibited.

Source of the values: ChEMBL document CHEMBL4390641, “Design, synthesis and biological evaluation of amide-pyridine derivatives as novel dual-target (SE, CYP51) antifungal inhibitors” (2019).
